In the supplement of paper PMC11451515:

System: NOMO1
Assay: cell viability relative to DMSO control; higher = less cytotoxic
Settings: 48 h
Summary of the method: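 Library compounds in DMSO were pin-dosed in an 11-point threefold series (47 μM to 0.79 nM) onto leukemia cells in 1536-well plates (5 μl). Plates held 500 cells/well of NOMO1 or SEM or 1000 cells/well of P12-Ichikawa, each adapted for at least four passages in each medium. Luminescence was read with CellTiter-Glo One after 48 h at 37°C. Viability means the per-plate percentage relative to DMSO wells, using cell-free wells as background.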

[1] = HPLM + 10% dialyzed FBS, 0.000781 µM
[2] = HPLM + 10% dialyzed FBS, 0.00234 µM
[3] = HPLM + 10% dialyzed FBS, 0.00702 µM
[4] = HPLM + 10% dialyzed FBS, 0.0211 µM
[5] = HPLM + 10% dialyzed FBS, 0.0632 µM
[6] = HPLM + 10% dialyzed FBS, 0.19 µM
[7] = HPLM + 10% dialyzed FBS, 0.569 µM
[8] = HPLM + 10% dialyzed FBS, 1.71 µM
[9] = HPLM + 10% dialyzed FBS, 5.12 µM
[10] = HPLM + 10% dialyzed FBS, 15.4 µM
[11] = HPLM + 10% dialyzed FBS, 46.1 µM
[12] = RPMI 5 mM glucose + 10% FBS, 0.000781 µM
[13] = RPMI 5 mM glucose + 10% FBS, 0.00234 µM
[14] = RPMI 5 mM glucose + 10% FBS, 0.00702 µM
[15] = RPMI 5 mM glucose + 10% FBS, 0.0211 µM
[16] = RPMI 5 mM glucose + 10% FBS, 0.0632 µM
[17] = RPMI 5 mM glucose + 10% FBS, 0.19 µM
[18] = RPMI 5 mM glucose + 10% FBS, 0.569 µM
[19] = RPMI 5 mM glucose + 10% FBS, 1.71 µM
[20] = RPMI 5 mM glucose + 10% FBS, 5.12 µM
[21] = RPMI 5 mM glucose + 10% FBS, 15.4 µM
[22] = RPMI 5 mM glucose + 10% FBS, 46.1 µM
[23] = RPMI 5 mM glucose + 10% dialyzed FBS, 0.000781 µM
[24] = RPMI 5 mM glucose + 10% dialyzed FBS, 0.00234 µM
[25] = RPMI 5 mM glucose + 10% dialyzed FBS, 0.00702 µM
[26] = RPMI 5 mM glucose + 10% dialyzed FBS, 0.0211 µM
[27] = RPMI 5 mM glucose + 10% dialyzed FBS, 0.0632 µM
[28] = RPMI 5 mM glucose + 10% dialyzed FBS, 0.19 µM
[29] = RPMI 5 mM glucose + 10% dialyzed FBS, 0.569 µM
[30] = RPMI 5 mM glucose + 10% dialyzed FBS, 1.71 µM
[31] = RPMI 5 mM glucose + 10% dialyzed FBS, 5.12 µM
[32] = RPMI 5 mM glucose + 10% dialyzed FBS, 15.4 µM
[33] = RPMI 5 mM glucose + 10% dialyzed FBS, 46.1 µM

| SMILES | cell viability [1] | cell viability [2] | cell viability [3] | cell viability [4] | cell viability [5] | cell viability [6] | cell viability [7] | cell viability [8] | cell viability [9] | cell viability [10] | cell viability [11] | cell viability [12] | cell viability [13] | cell viability [14] | cell viability [15] | cell viability [16] | cell viability [17] | cell viability [18] | cell viability [19] | cell viability [20] | cell viability [21] | cell viability [22] | cell viability [23] | cell viability [24] | cell viability [25] | cell viability [26] | cell viability [27] | cell viability [28] | cell viability [29] | cell viability [30] | cell viability [31] | cell viability [32] | cell viability [33] |
| --- | --- | --- | --- | --- | --- | --- | --- | --- | --- | --- | --- | --- | --- | --- | --- | --- | --- | --- | --- | --- | --- | --- | --- | --- | --- | --- | --- | --- | --- | --- | --- | --- | --- |
| COc1ccc(C(=O)c2c(C)n(CCN3CCOCC3)c3ccccc23)cc1 | 87.4% | 99.9% | 98.1% | 108% | 107% | 129% | 107% | 104% | 95.2% | 90.2% | 87.6% | 91.7% | 92.5% | 94.4% | 91.7% | 85.4% | 99.6% | 82.9% | 97.1% | 95.7% | 88.6% | 93.7% | 87.1% | 84.2% | 92.5% | 88.5% | 104% | 76.9% | 98.9% | 92% | 87.9% | 86.6% | 92% |
| CC(C)(S)[C@@H](N)C(=O)O | 111% | 118% | 97.1% | 136% | 132% | 111% | 109% | 133% | 114% | 128% | 80.6% | 103% | 106% | 113% | 103% | 118% | 115% | 103% | 105% | 115% | 111% | 106% | 97.5% | 94.7% | 112% | 115% | 124% | 117% | 108% | 118% | 118% | 108% | 62.1% |
| NC(=O)[C@H]1CCS[C@@H]2C[C@]3(CCCN3C(=O)Cc3ccc(NC(=O)COc4ccc(Cl)cc4Cl)cc3)C(=O)N12 | 111% | 138% | 123% | 134% | 139% | 123% | 102% | 36.8% | 39.9% | 42.3% | 52.3% | 107% | 129% | 121% | 131% | 138% | 131% | 119% | 103% | 26.1% | 26.6% | 38.9% | – | – | – | – | – | – | – | – | – | – | – |
| COc1cc(Nc2c(C#N)cnc3cc(OCCCN4CCN(C)CC4)c(OC)cc23)c(Cl)cc1Cl | 123% | 121% | 118% | 111% | 116% | 105% | 121% | 83.6% | 52.1% | 9.63% | 7.18% | 109% | 115% | 126% | 119% | 126% | 118% | 112% | 106% | 82.4% | 13.7% | 7.22% | 103% | 105% | 112% | 113% | 116% | 114% | 112% | 120% | 85.8% | 26% | 10.6% |
| C[C@]12Cc3cn[nH]c3C[C@@H]1CC[C@@H]1[C@@H]2CC[C@@]2(C)[C@H]1CC[C@]2(C)O | – | – | – | – | – | – | – | – | – | – | – | 97.1% | 102% | 100% | 105% | 106% | 103% | 109% | 112% | 100% | 92.4% | 90.7% | 102% | 119% | 122% | 120% | 114% | 105% | 103% | 92.8% | 95.3% | 109% | 96.3% |
| COc1cc([C@@H](CC(=O)O)c2ccc(C)c(CN3C[C@@H](C)Oc4ccccc4[S+]3(=O)[O-])c2)cc2nnn(C)c12 | 123% | 120% | 111% | 121% | 110% | 118% | 96.8% | 119% | 66.6% | 30.3% | 26.5% | 114% | 117% | 117% | 98.7% | 97.1% | 102% | 104% | 99.3% | 92.4% | 90.3% | 91.1% | 102% | 118% | 116% | 104% | 113% | 99.5% | 100% | 101% | 86.2% | 79.6% | 75.4% |
| NC(=O)Nc1sc(-c2ccc(F)cc2)cc1C(N)=O | 108% | 112% | 117% | 111% | 121% | 102% | 94.5% | 99.8% | 83.8% | 60.2% | 55.2% | 117% | 99.7% | 115% | 96% | 113% | 110% | 96.7% | 92.4% | 95.9% | 78% | 50.5% | 101% | 111% | 111% | 100% | 103% | 107% | 104% | 79.4% | 75.6% | 62% | 54.1% |
| O=C(CS(=O)Cc1ccco1)NC/C=C\COc1cc(CN2CCCCC2)ccn1 (stereo not given) | 85% | 105% | 101% | 102% | 93.3% | 113% | 93.8% | 98.9% | 89% | 94.1% | 92.9% | 89.7% | 87.5% | 97.2% | 95.7% | 87.1% | 98.2% | 87.8% | 89.3% | 94.8% | 93.3% | 92.8% | 90% | 103% | 95% | 108% | 105% | 103% | 108% | 97.4% | 90.9% | 105% | 99.4% |
| C[C@@H]1O[C@@H](O[C@H]2C[C@@H](O)[C@]3(CO)[C@H]4[C@H](O)C[C@]5(C)[C@@H](C6=CC(=O)OC6)CC[C@]5(O)[C@@H]4CC[C@]3(O)C2)[C@H](O)[C@H](O)[C@H]1O | 94.8% | 104% | 99% | 81.8% | 32.9% | 14.5% | 9.66% | 8.1% | 8.19% | 8.12% | 6.11% | 93.1% | 95.2% | 109% | 110% | 95.3% | 39.6% | 13.6% | 8.12% | 8.09% | 7.5% | 5.41% | 97.8% | 109% | 103% | 117% | 73.2% | 30% | 11.3% | 6.76% | 6.52% | 6.15% | 5.29% |
| O=C(O)CCCCC(CCSCc1ccccc1)SCc1ccccc1 (stereo not given) | 109% | 104% | 105% | 117% | 124% | 115% | 118% | 135% | 110% | 86% | 28.7% | 108% | 112% | 115% | 113% | 121% | 114% | 107% | 102% | 109% | 100% | 39.1% | 122% | 116% | 124% | 123% | 120% | 134% | 131% | 129% | 112% | 99.9% | 55.5% |
| O=C(CCc1ccc(O)cc1)c1c(O)cc(O)cc1O | 84.2% | 95.5% | 108% | 112% | 93.8% | 104% | 100% | 125% | 116% | 93% | 36.8% | 91.5% | 98.6% | 105% | 102% | 98% | 99.5% | 96.1% | 106% | 98.3% | 101% | 38.3% | 82.4% | 101% | 94.5% | 103% | 98.1% | 87.1% | 98.9% | 103% | 101% | 106% | 74.7% |
| c1ccc2c(Cc3c[nH]c4ccccc34)c[nH]c2c1 | 95% | 106% | 108% | 93.6% | 112% | 112% | 95.5% | 89.7% | 87.4% | 80.4% | 54% | 89.8% | 98.3% | 87.8% | 101% | 97.7% | 86.8% | 96.1% | 89.8% | 85.2% | 85.8% | 78.9% | 99% | 92% | 106% | 104% | 93.3% | 97.7% | 93.2% | 94.2% | 88.5% | 84% | 57.1% |
| OC[C@H]1O[C@H](C[C@@H]1O)N2\C=C(F)/C(=O)NC2=O | 115% | 120% | 120% | 70.9% | 51.9% | 46.8% | 52.1% | 50.4% | 35.5% | 27.8% | 17.9% | 121% | 118% | 114% | 118% | 120% | 89.9% | 82.6% | 72.7% | 44.1% | 39.1% | 30.2% | 140% | 119% | 106% | 79.2% | 63.9% | 46.4% | 47% | 34.4% | 24.6% | 27.6% | 20.1% |
| CC[S+](=O)([O-])Nc1ccc2c(c1)/C(=C(/Nc1ccc(CN3CCCCC3)cc1)c1ccccc1)C(=O)N2 | 111% | 114% | 111% | 110% | 113% | 85% | 79.3% | 59.1% | 45.9% | 33.8% | 10.4% | 104% | 102% | 111% | 117% | 99.3% | 49.3% | 47.5% | 53.1% | 47.6% | 39.9% | 18.5% | 99.2% | 102% | 121% | 101% | 104% | 62% | 63.8% | 54.5% | 44.6% | 37.1% | 18.2% |
